Laboratory results reported in patent US12084431B2, “Pharmaceutical salts of pyrimidine derivatives and method of treating disorders” (ARIAD Pharmaceuticals, Inc., priority 2018, dated 2024).

Experiments:
[1] = Thermodynamic aqueous solubility studies (de-ionized water, 24 h, HPLC concentration, filtrate pH, XRPD of solid)
Experimental: The resulting solid material was isolated by centrifugation and analyzed by XRPD, while the filtrate was analyzed by HPLC for concentration determination. The pH of the resulting filtrate was also determined.

[2] = Vapour sorption analysis (GVS, hygroscopicity); assay type: physicochemical; conditions: % uptake at 90% RH; succinate
Experimental: Approximately 10 mg of the sample was placed into a mesh vapor sorption balance pan and loaded into an IGASorp Moisture Sorption Analyzer balance by Hiden Analytical. The sample was subjected to a ramping profile from 40 to 90% relative humidity (RH) at 10% increments to 90% RH, maintaining the sample at each step until a stable weight had been achieved (98% step completion). After completion of the sorption cycle, the sample was dried using the same procedure (initially from 90% RH to 0% RH and finally taken back to the starting point of 40% RH). The sorption/desorption profiles were then repeated to give a double-cycle plot. The weight changes during the sorption/desorption cycles were plotted, allowing for the hygroscopic nature of the sample to be determined.

[3] = Stability stress testing (ambient light, 40° C./75% RH, 80° C., 7 days; XRPD and HPLC purity); assay type: physicochemical
Experimental: Approximately 5 mg of the appropriate samples were placed into 2 mL clear glass vials and the vials were all stored open under the conditions of ambient light, 40° C./75% RH, and 80° C. for 7 days, respectively. The ambient light sample was left open on the bench at room temperature. The 80° C. sample was placed open into an 80° C. oven.

[4] = test system: advanced NSCLC (EGFR exon 20 insertions); assay: Phase 1/2 study, antitumor activity / disease assessment by RECIST v1.1; assay type: in vivo, human; conditions: 160 mg QD
Experimental: 52 patients were enrolled as of 30 Jan. 2018.
Disease stabilization started to be reported at the 40 mg QD cohort. Disease assessments for patients who had at least one disease assessment following treatment with Compound (A) are shown in Table 21. All patients who responded have EGFR exon 20 insertion mutations and had previously been treated with platinum-based chemotherapy, EGFR TKIs, or PD-1 inhibitors.

[5] = Phase 1/2 study, safety (adverse events, dose limiting toxicities, MTD); conditions: human, in vivo
Experimental: Patients with advanced NSCLC refractory to standard therapy received daily oral doses (5-120 mg) of Compound (A) in the dose-escalation phase. Compound (A) was provided as polymorphic Form-I of the succinate salt of Compound (A). Compound (A) was formulated as a drug-in-capsule with no excipients and administered orally. Preliminary antitumor activity (by RECIST v1.1), safety and pharmacokinetics are reported for patients receiving at least one dose.
As part of the same phase ½ study as described in Example 12, a dose escalation study was performed. […] 2018.
The phase 2 portion of the study was initiated to expand the study in two 160 mg QD cohorts (EGFR exon 20 mutant NSCLC patients with or without brain metastases) and continue to enroll more patients in the 120 mg cohort.

[6] = number of the 26 patients in efficacy analysis

In the case of `C=CC(=O)Nc1cc(Nc2ncc(C(=O)OC(C)C)c(-c3cn(C)c4ccccc34)n2)c(OC)cc1N(C)CCN(C)C` [Succinate, isopropyl 2-((5-acrylamido-4-((2-(dimethylamino)ethyl) (methyl)amino)-2-methoxyphenyl)amino)-4-(1-methyl-1H-indol-3-yl)pyrimidine-5-carboxylate succinate], the solubility at 24 h ([1]; de-ionized water, pH 6.97, water, thermodynamic from solid, Solubility in Water, de-ionized water (pH 6.97), slurry shaken at ambient temperature for 24 h, filtrate by HPLC, salts of Compound (A)) is reported as 1900 µg/mL, the “pH at Saturation” value ([1]; pH of filtrate after 24 h slurry in de-ionized water (pH 6.97), ambient temperature, succinate) is reported as 5.00 and the “GVS (Hygroscopicity)” value [2] is reported as 1.3%. For the same compound, the XRPD after storage ([3]; 7 days, all storage conditions (ambient light, 40° C./75% RH, 80° C.)) was “No change under all storage”, the “Purity, 40° C./75% RH” value ([3]; HPLC purity after 7 days, open vial, 40° C./75% RH, succinate) was 99.6 and the “Purity, 80° C.” value ([3]; HPLC purity after 7 days, open vial, 80° C., succinate) was 99.6. For the same compound, the “Purity, Ambient light” value ([3]; HPLC purity after 7 days, open vial, ambient light, room temperature, succinate) was 99.6, the Input purity ([3]; HPLC purity before stress storage) was 99.7 and the “Chemical Stability” value ([3]; summary in Table 17) was “Stable”. The “overall response rate (ORR) (best response)” value ([4]; 26 patients with EGFR exon 20 insertion mutations, 95% CI: 33.37%, 73.41%) was 53.8%, the “disease control rate (DCR)” value ([4]; 26 patients with EGFR exon 20 insertion mutations, 95% CI: 69.85%, 97.55%) was 88.5% and the “confirmed partial response (PR)” value [4, 6] was 7. For the same compound, the “unconfirmed PR awaiting confirmation” value [4, 6] was 6, the “patients with any TEAE leading to treatment discontinuation” value [5] was 18.8% and the “patients with at least 1 Grade≥3 TEAE” value [5] was 58.4%. The “patients with at least 1 Grade≥3 TRAE” value [5] was 29.7%, the “patients with at least 1 TEAE” value [5] was 98.0% and the “patients with at least 1 TRAE” value [5] was 91.1%. The “patients with at least 1 treatment-emergent SAE” value [5] was 35.6% and the “patients with at least 1 treatment-related SAE” value [5] was 10.9%.
